Values joined by “and” are separate entries in the source; they are usually repeats but may differ in a detail not shown here. Equal entries are not always repeated.

Assay [1] deals with different strains of H. pylori. As to the kind of experiment: In vitro studies against different strains of H. pylori. It is filed as cell-based, Helicobacter pylori. From the text: The present disclosure is based in part on the unexpected finding of bacteriostatic and/or bacteriocidic action of fusidic acid or a pharmaceutically acceptable salt or solvate thereof (e.g. sodium fusidate) against H. pylori. […] This finding provides a significant advantage over the hitherto known treatments, by increasing the percentage of patients in which eradication is achieved, reducing doses and side effects of conventional add-on therapy, preserving gut microbiota, and decreasing exposure to conventional antibiotics thereby decreasing antibiotic resistance. In addition, fusidic acid and/or salts and solvates thereof have no cross-resistance with the existing antibiotics used for the treatment of H. pylori and have low probability for developing resistance.

A further assay deals with H. pylori ATCC No. 43826. The assay is described as follows: Disk diffusion susceptibility of H. pylori to sodium fusidate. It is filed as cell-based, Helicobacter pylori. The conditions noted are these: 4 days at 37° C., sample No. = replicate disk. The protocol: (§1) In vitro testing for the susceptibility of H. pylori to sodium fusidate was performed. Inoculation was made with a broth culture of two ATCC strains of H. pylori (ATCC No. 700824 and 43826) diluted to match a 0.5 McFarland turbidity standard. Disks containing increasing antibiotic concentrations (0.5-4.0%) were placed on seeded bacterial lawn on agar surface. Three disks with the same antibiotic concentration were placed on each plate. The disks were evenly distributed in a circle towards the periphery of the plate. Plates were incubated for 4 days at an incubation temperature of 37° C. (with Microaerophilic pach). Diameter of inhibition sizes was measured wherein each disk was considered to represent the center of the clear zone, namely the slope of the regression line is construed to correspond to the diffusion coefficient of the antibiotic in the agar. Negative control disks containing water instead of antibiotics were placed at the center of each dish. A separate plate with no disks was prepared as an additional control. […]

The test system of assay [2] is H. pylori ATCC No. 700824. The description is as above. It is filed as cell-based, Helicobacter pylori. To be noted: 4 days at 37° C., sample No. = replicate disk. As for the experimental part: as §1
The test system of another assay is H. pylori. The conditions noted are these: cited from earlier work.
Setting [3] is: sodium fusidate con. 0.5% on disk.
Setting [4] is: sodium fusidate con. 1.0% on disk.
Setting [5] is: sodium fusidate con. 4.0% on disk.

`CC(=O)O[C@H]1C[C@@]2(C)[C@@H](C[C@@H](O)[C@H]3[C@@]4(C)CC[C@@H](O)[C@@H](C)[C@@H]4CC[C@@]32C)/C1=C(\CCC=C(C)C)C(=O)O` [Sodium fusidate, sodium fusidate]: the “Activity against different strains of H. pylori” value in assay [1] was “active”. Besides, the Diameter of inhibition was not below 4.4 cm with H. pylori ATCC No. 43826 (setting [3]); not below 4.4 cm with H. pylori ATCC No. 43826 (setting [4]); not below 4.4 cm in the assay on H. pylori ATCC No. 43826 (setting [5]); 1.6 cm and 2 cm and 2.4 cm in assay [2] (setting [3]); 2.7 cm and 2.6 cm and 3.0 cm in assay [2] (setting [4]); not below 4.4 cm in assay [2] (setting [5]).

Consider `CC(=O)O[C@H]1C[C@@]2(C)[C@@H](C[C@@H](O)[C@H]3[C@@]4(C)CC[C@@H](O)[C@@H](C)[C@@H]4CC[C@@]32C)/C1=C(\CCC=C(C)C)C(=O)O` [fusidic acid, 29-Nordammara-17(20),24-dien-21-oic acid, 16-(acetyloxy)-3,11-dihydroxy-, (3α, 4α, 8α, 9α, 11α, 13α, 14β, 16β, 17Z)-], for which the “Activity against different strains of H. pylori” value in assay [1] was “active”. Besides, the “Efficacy as monotherapy against H. pylori” value with H. pylori is listed as “ineffective”.

Values taken from patent US11096948B2, “Methods for treating helicobacter infection” (DEXCEL PHARMA TECHNOLOGIES LTD., priority 2016, dated 2021).
